{"source": "ChEMBL document CHEMBL1201862", "about": "“PubChem BioAssay data set” (2004)", "key": {"[1]": {"target": "COUP transcription factor 2 (Homo sapiens, UniProt P24468)", "sequence (P24468 whole entry)": "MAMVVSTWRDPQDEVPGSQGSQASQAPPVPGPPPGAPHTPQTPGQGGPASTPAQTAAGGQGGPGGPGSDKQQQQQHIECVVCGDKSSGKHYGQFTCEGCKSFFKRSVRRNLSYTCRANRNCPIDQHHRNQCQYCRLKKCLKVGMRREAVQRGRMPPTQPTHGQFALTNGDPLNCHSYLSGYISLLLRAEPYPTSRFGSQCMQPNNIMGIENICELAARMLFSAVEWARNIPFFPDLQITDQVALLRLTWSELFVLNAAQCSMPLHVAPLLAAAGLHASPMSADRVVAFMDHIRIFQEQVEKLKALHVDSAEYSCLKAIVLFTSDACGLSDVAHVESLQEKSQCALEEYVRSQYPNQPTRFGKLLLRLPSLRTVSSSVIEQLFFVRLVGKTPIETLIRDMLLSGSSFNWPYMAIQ", "assay": "Luminescence-based cell-based high throughput dose response assay to identify inhibitors of COUP-TFII (NR2F2).", "type": "functional"}, "[2]": {"target": "Histone-lysine N-methyltransferase NSD2 (Homo sapiens, UniProt O96028)", "sequence (O96028 whole entry)": "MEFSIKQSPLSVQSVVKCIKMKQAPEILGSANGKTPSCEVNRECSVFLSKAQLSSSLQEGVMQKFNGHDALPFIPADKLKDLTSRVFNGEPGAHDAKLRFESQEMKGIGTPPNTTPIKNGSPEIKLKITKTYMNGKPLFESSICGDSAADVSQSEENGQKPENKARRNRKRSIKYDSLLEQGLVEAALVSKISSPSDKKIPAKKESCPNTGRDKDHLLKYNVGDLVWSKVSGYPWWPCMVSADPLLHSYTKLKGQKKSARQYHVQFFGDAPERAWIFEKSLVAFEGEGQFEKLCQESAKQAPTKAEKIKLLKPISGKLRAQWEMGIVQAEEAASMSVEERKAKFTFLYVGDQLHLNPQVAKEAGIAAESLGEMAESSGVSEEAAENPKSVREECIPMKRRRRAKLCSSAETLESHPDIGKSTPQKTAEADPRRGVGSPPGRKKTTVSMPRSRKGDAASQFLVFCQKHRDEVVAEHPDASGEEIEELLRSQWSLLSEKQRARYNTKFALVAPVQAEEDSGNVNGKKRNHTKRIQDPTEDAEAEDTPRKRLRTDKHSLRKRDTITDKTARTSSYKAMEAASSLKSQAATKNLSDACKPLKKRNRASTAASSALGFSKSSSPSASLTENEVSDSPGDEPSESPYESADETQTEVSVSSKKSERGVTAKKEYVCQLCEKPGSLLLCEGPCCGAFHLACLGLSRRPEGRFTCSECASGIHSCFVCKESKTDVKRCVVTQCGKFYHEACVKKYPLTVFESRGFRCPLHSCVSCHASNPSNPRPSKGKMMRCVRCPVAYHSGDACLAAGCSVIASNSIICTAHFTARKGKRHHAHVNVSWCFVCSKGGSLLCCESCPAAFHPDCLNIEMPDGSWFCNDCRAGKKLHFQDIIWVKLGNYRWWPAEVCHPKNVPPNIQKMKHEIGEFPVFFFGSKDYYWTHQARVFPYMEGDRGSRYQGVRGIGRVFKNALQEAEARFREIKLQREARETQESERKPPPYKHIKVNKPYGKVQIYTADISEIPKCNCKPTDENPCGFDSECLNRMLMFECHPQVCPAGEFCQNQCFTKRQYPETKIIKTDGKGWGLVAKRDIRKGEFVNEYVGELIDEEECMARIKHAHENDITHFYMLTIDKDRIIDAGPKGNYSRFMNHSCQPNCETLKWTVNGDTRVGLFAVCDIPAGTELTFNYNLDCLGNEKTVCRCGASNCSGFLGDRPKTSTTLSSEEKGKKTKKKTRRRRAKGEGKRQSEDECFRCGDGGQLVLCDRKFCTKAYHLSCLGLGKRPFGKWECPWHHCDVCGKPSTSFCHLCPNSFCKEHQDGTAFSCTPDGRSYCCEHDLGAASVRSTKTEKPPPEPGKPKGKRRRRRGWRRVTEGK", "type": "biochemical"}, "[3]": {"target": "T1, Replicative DNA helicase DnaB (Mycobacterium tuberculosis, UniProt P9WMR3)", "T1 sequence (P9WMR3 whole entry)": "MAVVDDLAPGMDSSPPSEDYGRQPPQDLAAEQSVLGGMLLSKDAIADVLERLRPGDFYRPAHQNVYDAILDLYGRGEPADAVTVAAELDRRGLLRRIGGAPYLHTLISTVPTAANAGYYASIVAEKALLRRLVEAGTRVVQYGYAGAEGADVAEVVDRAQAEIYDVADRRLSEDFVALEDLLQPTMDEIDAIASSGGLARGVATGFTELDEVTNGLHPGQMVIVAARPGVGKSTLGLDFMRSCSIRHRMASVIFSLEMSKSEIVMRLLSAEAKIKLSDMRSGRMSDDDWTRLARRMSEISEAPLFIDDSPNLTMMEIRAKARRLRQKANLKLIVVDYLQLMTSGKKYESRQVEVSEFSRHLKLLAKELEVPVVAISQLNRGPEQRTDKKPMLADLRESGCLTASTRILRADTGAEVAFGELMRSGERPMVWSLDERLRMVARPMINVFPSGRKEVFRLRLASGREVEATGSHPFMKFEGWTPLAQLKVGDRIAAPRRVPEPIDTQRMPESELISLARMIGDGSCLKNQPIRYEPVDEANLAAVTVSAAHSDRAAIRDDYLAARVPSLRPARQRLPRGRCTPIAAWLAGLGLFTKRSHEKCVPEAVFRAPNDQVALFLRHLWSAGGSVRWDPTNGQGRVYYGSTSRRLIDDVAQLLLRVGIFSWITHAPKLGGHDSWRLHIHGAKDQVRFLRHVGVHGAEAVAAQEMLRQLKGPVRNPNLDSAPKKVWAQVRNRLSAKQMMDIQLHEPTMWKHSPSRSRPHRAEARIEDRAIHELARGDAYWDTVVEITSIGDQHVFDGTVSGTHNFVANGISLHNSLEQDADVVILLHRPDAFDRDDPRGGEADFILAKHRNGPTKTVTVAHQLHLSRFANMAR", "assay": "DnaB intein splicing inhibitors, dose response, biochemical, cell-free fluorescence (AID 449749)", "type": "functional"}, "Caspase-6": {"target": "Caspase-6 (Homo sapiens, UniProt P55212)", "assay": "inhibition of CASP6 peptide cleavage – biochemical, VEID-R110 fluorescence, cherry-pick, dose response (AID 720632)"}, "Protein RecA": {"target": "T2, Protein RecA (Mycobacterium tuberculosis, UniProt P9WHJ3)", "T2 sequence (P9WHJ3 whole entry)": "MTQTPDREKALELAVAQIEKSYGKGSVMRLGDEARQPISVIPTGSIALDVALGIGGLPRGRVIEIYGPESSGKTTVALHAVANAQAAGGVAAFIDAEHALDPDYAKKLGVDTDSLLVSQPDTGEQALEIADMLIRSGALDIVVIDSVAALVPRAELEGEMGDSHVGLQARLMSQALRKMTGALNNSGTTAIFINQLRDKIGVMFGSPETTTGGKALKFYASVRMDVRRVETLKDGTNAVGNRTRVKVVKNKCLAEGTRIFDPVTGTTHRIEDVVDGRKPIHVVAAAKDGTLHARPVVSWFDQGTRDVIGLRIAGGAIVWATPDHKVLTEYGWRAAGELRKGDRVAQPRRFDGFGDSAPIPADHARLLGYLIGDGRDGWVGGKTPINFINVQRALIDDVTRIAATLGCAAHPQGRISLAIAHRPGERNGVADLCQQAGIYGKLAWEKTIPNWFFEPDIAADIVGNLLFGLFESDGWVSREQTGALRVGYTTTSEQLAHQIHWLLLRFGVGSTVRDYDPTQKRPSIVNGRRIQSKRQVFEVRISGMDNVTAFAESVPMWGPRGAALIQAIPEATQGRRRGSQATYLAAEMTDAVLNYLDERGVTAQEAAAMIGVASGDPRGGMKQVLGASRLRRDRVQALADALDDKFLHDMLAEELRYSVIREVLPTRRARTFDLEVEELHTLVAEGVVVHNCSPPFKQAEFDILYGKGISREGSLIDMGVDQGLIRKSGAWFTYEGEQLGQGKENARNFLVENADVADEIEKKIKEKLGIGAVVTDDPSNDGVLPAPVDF", "assay": "Fluorescence Cell-Free Homogeneous Dose Retest to Identify Inhibitors of RecA-Intein Splicing Activity. [Related pubchem assays (depositor defined):AID2097, AID2223, AID489010, AID492950]", "type": "functional"}, "[4]": {"target": "DNA (cytosine-5)-methyltransferase 1 (Homo sapiens, UniProt P26358)", "sequence (P26358 whole entry)": "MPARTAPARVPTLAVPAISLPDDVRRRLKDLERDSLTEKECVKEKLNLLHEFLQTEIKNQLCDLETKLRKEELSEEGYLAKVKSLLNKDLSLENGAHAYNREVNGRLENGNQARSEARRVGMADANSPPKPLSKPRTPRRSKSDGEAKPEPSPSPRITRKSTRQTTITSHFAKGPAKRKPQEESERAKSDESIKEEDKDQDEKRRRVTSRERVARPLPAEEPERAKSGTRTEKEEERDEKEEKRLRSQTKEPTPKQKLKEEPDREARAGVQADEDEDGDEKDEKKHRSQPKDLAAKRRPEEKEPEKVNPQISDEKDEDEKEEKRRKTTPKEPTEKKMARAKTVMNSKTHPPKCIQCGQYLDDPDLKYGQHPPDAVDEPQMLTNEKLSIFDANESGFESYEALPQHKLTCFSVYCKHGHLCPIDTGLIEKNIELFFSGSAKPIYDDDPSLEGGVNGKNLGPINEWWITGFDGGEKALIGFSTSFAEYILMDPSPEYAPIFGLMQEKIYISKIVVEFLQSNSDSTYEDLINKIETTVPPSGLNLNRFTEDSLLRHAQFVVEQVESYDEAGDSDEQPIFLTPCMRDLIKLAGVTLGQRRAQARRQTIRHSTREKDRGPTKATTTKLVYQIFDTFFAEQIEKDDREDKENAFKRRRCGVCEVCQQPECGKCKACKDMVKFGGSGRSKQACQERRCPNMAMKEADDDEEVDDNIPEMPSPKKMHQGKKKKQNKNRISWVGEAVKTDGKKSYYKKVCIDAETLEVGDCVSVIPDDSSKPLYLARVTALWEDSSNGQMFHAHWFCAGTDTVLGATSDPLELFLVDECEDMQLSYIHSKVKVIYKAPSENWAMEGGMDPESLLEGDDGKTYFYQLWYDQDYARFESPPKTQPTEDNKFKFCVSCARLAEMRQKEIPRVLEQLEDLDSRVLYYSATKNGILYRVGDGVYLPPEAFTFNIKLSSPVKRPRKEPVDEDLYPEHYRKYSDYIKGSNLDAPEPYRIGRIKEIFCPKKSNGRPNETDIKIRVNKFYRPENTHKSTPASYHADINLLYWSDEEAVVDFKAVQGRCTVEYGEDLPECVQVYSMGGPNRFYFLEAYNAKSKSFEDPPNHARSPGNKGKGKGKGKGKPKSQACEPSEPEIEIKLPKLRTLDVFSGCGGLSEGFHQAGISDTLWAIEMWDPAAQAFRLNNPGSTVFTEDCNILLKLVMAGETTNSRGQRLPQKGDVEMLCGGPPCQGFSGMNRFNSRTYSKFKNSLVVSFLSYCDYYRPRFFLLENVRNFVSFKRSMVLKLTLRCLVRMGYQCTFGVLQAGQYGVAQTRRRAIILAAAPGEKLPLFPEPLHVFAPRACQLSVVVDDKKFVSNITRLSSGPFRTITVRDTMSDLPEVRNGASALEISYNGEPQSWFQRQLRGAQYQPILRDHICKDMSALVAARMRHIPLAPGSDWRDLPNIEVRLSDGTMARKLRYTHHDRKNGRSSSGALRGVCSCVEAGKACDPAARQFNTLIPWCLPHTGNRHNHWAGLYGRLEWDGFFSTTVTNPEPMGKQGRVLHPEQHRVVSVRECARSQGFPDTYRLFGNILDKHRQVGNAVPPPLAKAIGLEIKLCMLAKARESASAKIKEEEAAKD", "assay": "inhibition of DNA methylation by DNMT1 – biochemical, fluorescent molecular beacon, confirmation (AID 602386)", "type": "functional"}, "Paired box protein Pax-8": {"target": "Paired box protein Pax-8 (Homo sapiens, UniProt Q06710)", "sequence (Q06710 whole entry)": "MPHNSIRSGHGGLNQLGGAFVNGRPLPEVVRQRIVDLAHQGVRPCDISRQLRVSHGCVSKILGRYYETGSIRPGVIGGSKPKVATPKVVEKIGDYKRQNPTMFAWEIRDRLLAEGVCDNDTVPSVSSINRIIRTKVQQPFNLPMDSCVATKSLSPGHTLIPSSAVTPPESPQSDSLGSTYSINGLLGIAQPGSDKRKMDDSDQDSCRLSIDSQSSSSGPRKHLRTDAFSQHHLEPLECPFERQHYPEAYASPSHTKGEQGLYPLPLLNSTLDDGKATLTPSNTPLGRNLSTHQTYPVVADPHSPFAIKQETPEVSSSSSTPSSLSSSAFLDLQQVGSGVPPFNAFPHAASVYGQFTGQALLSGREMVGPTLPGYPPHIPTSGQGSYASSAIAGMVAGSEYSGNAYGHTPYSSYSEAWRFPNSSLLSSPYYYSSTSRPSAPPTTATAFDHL", "assay": "PAX8 transcriptional activity inhibition in RMG-I – RMG-I cells, luciferase, cherry-pick, dose response (AID 687027);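 further: luciferase reporter driven by Pax8 target thyroperoxidase promoter measured by SteadyGlo luminescence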", "type": "functional, cell-based"}, "[5]": {"assay": "OVCAR8 cell viability loss – plate reader, dry powder samples, PAX8 project, dose response (AID 743197)", "type": "functional, cell-based", "conditions": "OVCAR-8"}, "[6]": {"assay": "OVCAR-3 cell viability loss – plate reader, dry powder samples, PAX8 inhibitor project, dose response (AID 743044)", "type": "functional, cell-based"}, "[7]": {"assay": "A2780 cell killing – plate reader, dry powder samples, cytotoxicity control, dose response (AID 743046)", "type": "functional, cell-based"}, "[8]": {"target": "T3, Oxysterols receptor LXR-beta (Homo sapiens, UniProt P55055)", "T3 sequence (P55055 whole entry)": "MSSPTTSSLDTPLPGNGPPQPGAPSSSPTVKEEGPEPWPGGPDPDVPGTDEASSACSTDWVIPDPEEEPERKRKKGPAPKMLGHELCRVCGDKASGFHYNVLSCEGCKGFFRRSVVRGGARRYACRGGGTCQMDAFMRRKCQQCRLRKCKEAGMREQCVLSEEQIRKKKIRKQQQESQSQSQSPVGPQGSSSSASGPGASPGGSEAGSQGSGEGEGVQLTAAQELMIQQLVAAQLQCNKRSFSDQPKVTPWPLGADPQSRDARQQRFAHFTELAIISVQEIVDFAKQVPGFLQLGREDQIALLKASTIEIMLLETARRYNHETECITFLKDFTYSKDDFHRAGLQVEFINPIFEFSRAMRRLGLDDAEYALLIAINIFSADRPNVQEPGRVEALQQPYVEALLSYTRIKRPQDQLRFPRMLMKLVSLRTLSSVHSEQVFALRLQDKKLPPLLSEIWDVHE", "type": "functional, cell-based"}, "[9]": {"target": "Endoplasmic reticulum aminopeptidase 1 (Homo sapiens, UniProt Q9NZ08)", "sequence (Q9NZ08 whole entry)": "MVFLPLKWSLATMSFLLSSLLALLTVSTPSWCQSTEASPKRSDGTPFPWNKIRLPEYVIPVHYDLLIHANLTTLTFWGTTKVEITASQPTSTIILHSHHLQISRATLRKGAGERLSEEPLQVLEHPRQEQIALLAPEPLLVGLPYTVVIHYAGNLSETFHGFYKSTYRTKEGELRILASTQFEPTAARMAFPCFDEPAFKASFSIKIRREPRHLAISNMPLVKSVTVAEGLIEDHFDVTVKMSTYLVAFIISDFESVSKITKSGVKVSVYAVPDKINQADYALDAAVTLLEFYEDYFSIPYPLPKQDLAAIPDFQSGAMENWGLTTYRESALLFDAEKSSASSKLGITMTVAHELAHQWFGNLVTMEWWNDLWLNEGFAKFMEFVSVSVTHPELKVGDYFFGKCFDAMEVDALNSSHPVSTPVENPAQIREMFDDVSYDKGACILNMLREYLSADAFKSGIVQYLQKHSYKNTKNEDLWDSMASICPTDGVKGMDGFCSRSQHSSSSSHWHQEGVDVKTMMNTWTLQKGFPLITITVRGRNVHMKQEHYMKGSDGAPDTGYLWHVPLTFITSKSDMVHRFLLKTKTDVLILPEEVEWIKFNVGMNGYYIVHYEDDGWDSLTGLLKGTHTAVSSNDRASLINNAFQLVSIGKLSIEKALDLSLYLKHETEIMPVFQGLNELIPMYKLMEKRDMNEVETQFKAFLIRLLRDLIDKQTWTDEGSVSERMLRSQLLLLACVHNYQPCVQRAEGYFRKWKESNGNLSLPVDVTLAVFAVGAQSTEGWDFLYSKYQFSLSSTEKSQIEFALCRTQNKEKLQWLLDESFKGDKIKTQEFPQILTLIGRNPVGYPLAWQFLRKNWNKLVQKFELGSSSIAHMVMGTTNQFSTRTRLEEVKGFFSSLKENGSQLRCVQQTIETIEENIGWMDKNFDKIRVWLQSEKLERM", "assay": "inhibition of human ERAP1 enzyme activity – biochemical, cherry-pick, set 2, plate reader, dose response (AID 743314)"}, "[10]": {"test_system": "Streptococcus sp. 'group A'", "assay": "Streptococcus pyogenes SK(-)GAS viability under kanamycin – luminescence, BacTiterGlo, confirmation, counter-screen for streptokinase expression inhibitor project, dose response (AID 1900)", "type": "functional, organism-based"}, "Streptococcus": {"test_system": "Streptococcus", "assay": "GAS UMAA2166 growth inhibition – luminescence, BacTiterGlo, counter-screen for streptokinase expression inhibitor project, dose response (AID 1915);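 further: potency for reduction of bacterial viability or growth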", "type": "functional, organism-based"}, "[11]": {"assay": "NIH-3T3 fibroblast cytotoxicity, dose response, cytotoxicity control, cell-based, fluorescence, Alamar Blue, secondary assay (AID 2327);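 further: NIH-3T3 mouse fibroblasts cultured with fluconazole at 8 µg/mL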", "type": "functional"}, "[12]": {"target": "Disintegrin and metalloproteinase domain-containing protein 17 (Homo sapiens, UniProt P78536)", "assay": "inhibition of ADAM17 substrate cleavage – biochemical, quenched FRET substrate, counter-screen for ADAM10 exosite inhibitor project, dose response (AID 743253)"}, "[13]": {"target": "T4, Probable nicotinate-nucleotide adenylyltransferase (Staphylococcus aureus (strain N315), UniProt P65502)", "T4 sequence (P65502 whole entry)": "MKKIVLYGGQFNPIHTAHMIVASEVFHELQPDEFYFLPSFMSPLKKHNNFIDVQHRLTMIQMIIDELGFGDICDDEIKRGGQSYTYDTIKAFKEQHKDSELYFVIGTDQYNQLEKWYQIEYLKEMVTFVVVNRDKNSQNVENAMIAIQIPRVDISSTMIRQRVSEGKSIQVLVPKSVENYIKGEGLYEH", "type": "functional, Staphylococcus aureus subsp. aureus N315", "conditions": "read-out: IC50_Mean"}, "[14]": {"target": "T4, Probable nicotinate-nucleotide adenylyltransferase", "type": "functional, Staphylococcus aureus subsp. aureus N315"}, "Streptokinase A": {"target": "T5, Streptokinase A (Streptococcus pyogenes serotype M1, UniProt P10520)", "T5 sequence (P10520 whole entry)": "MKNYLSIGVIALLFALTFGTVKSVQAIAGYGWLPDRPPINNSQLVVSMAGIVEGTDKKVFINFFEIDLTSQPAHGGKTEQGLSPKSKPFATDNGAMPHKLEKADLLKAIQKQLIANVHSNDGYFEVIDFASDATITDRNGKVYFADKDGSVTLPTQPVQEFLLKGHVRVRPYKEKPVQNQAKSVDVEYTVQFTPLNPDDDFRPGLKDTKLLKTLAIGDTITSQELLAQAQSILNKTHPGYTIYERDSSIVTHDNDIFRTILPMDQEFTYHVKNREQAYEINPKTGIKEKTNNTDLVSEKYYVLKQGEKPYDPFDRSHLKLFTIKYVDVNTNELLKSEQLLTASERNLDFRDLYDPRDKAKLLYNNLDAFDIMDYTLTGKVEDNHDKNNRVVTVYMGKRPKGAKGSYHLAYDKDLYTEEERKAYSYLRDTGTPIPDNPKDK", "assay": "viability-normalized secreted streptokinase activity reduction – plasminogen activation absorbance, OD405, dose response (AID 1914);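 further: secreted streptokinase activity via plasminogen activation per viability signal from cell pellet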", "type": "functional, Streptococcus pyogenes M1 GAS"}, "[15]": {"assay": "fluconazole-exposed Candida albicans growth modulators – fluorescence, retest, confirmation (AID 2467)", "type": "functional, cell-based"}}, "note": "The source made the active and inactive calls.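 Wherever IC50 Mean is given: confirmatory dose-response retesting of NadD inhibitor hits first found in an ultra-high-throughput screen.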", "data": [{"smiles": "NC(=O)[C@H]1CC2(CC(c3cccc(NC(=O)COc4ccc(Cl)cc4)c3)=NO2)CN1C(=O)Cc1ccc([N+](=O)[O-])cc1", "note": "(stereo partly specified)", "values": [{"measurement": "IC50", "setting": "[1]", "value": "5.32 µM (active)"}]}, {"smiles": "NS(=O)(=O)c1ccc(N=Nc2ccc(O)nc2O)cc1", "values": [{"measurement": "AC50", "setting": "[2]", "value": "> 20 µM (inactive)"}, {"measurement": "AC50", "setting": "[3]", "value": "53.2 µM (active)"}, {"measurement": "AC50", "setting": "Caspase-6", "value": "2.07 µM (active)"}, {"measurement": "EC50", "setting": "Protein RecA", "value": "4.4 µM (active)"}, {"measurement": "IC50", "setting": "[4]", "value": "7.65 µM (active)"}]}, {"smiles": "C[C@H]1CN([C@@H](C)CO)C(=O)Cc2cc(NC(=O)C3CC3)ccc2O[C@@H]1CN(C)Cc1ccc(-c2ccccc2)cc1", "values": [{"measurement": "AC50", "setting": "Paired box protein Pax-8", "value": "6.35 µM (active)"}, {"measurement": "AC50", "setting": "[5]", "value": "> 70 µM (inactive)"}, {"measurement": "AC50", "setting": "[6]", "value": "38 µM (active)"}, {"measurement": "AC50", "setting": "[7]", "value": "21.9 µM (active)"}]}, {"smiles": "Cc1cccc(/C=C\\c2nc(O)c3ccccc3n2)c1", "values": [{"measurement": "EC50", "setting": "[8]", "value": "> 67.5 µM (inactive)"}]}, {"smiles": "COCC(=O)N1[C@@H]2Cn3c(ccc(/C=C/c4ccccc4)c3=O)[C@H]1[C@@H](C(=O)N1CCOCC1)[C@@H]2CO", "values": [{"measurement": "AC50", "setting": "[9]", "value": "6.74 µM (active)"}]}, {"smiles": "O=C(NNC(=O)c1cc(-c2ccc(Cl)cc2)nc2ccccc12)c1csc(N2CCOCC2)n1", "values": [{"measurement": "EC50", "setting": "[10]", "value": "20 µM (active)"}, {"measurement": "EC50", "setting": "Streptococcus", "value": "76.8 µM (active)"}, {"measurement": "EC50", "setting": "[11]", "value": "> 150 µM (inactive)"}, {"measurement": "IC50", "setting": "[12]", "value": "> 69.5 µM (inactive)"}, {"measurement": "IC50", "setting": "[13]", "value": "58 µM (active)"}, {"measurement": "IC50", "setting": "[14]", "value": "20.8 µM (active)"}, {"measurement": "EC50", "setting": "Streptokinase A", "value": "> 150 µM (not active)"}, {"measurement": "EC50", "setting": "[15]", "value": "0.775 µM (active)"}]}, {"smiles": "O=C(NCCc1ccncc1)[C@H]1N[C@H]2c3ccc(/C=C/c4ccccc4)c(=O)n3C[C@H]2[C@@H]1CO", "values": [{"measurement": "AC50", "setting": "[9]", "value": "14.1 µM (active)"}]}]}
